From patent US20130039928A1, “COMPOSITIONS AND METHODS FOR REVERSING CORTICOSTEROID RESISTANCE OR TREATING RESPIRATORY INFECTIONS” (priority 2010, published 2013)
Read-outs that look alike come from different tables or passages of the source.

What was measured:
Pseudomonas aeruginosa = details: 0.5 mg/mouse/day nebulizer, three days, 4 hours after PA, compared to vehicle
Procedure: The efficacy of sulforaphane to improve bacterial phagocytosis and clearance in the lungs of mice exposed to cigarette smoke was determined. After 6 months or 1 week of CS or air exposure, mice were treated with sulforaphane and or vehicle (0.5 mg/mouse/day) for three consecutive days using an Aeroneb® nebulizer (Aerogen, Inc., Galway, Ireland). Mice were challenged intranasally with Pseudomonas aeruginosa 24 hours after the last dose of sulforaphane, and bacterial burden in BALF was analyzed 4 hours later.
C57BL/6J mice were housed under controlled conditions for temperature and humidity, using a 12-hour light/dark cycle. At 8 weeks of age, mice were exposed to CS for (2.5 h/day for 5 days/week) for 1 week or 6 months using a machine that produces cigarette smoke (TE-10, Teague Enterprises) and reference cigarettes (2R4F) with a total suspended particle concentration of 250 mg/m^3 as previously described (T. E. Sussan et al., Proc Natl Acad Sci USA, (Dec. 22, 2008)). Following exposure to CS, mice were inoculated with PA or NTHI at a dose of 10^3 CFU in 50 μl of PBS intranasally. […]
BAL fluid analysis and cell counts with differential staining were carried out as described previously (T. Rangasamy et al., J Clin Invest 114, 1248 (November, 2004)). […] After 24 h, the number of CFU was counted.

HDAC2 = format: cell-based, human
Procedure: (§1) For inducing corticosteroid resistance, PMs were exposed to cigarette smoke condensate (CSC, 100 μg/ml; Murty Pharmaceuticals, Lexington, Ky.) for 16 h. Exposure to S-nitrosoglutathione (GSNO, 10 μM) was limited to 4 h. […] For assessing corticosteroid responsiveness, macrophages were incubated with dexamethasone (1 μM, Sigma) for 1 h followed by LPS (100 ng/ml, Sigma) for additional 4 h.
HDAC activity was measured using a fluorescent derivative of ε-acetyl-lysine from Enzo life sciences (Farmingdale, N.Y.) according to the manufacturer's recommendations. HDAC2 was immunoprecipitated for analysis of enzymatic activity.
Macrophage cell or lung tissue extracts were prepared by using 100 μL of immunoprecipitation buffer (50 mM Tris-HCl, pH 8.0, 150 mM NaCl, 1.0% Triton X-100, 0.5% NP-40, 0.1% SDS, 0.5% deoxycholate, and complete protease inhibitor cocktail) from Roche (Morristown, N.J.). The lysis mixture was incubated on ice for 15 minutes and microcentrifuged for 10 minutes at 4° C. Extracts were precleared with 20 μL protein A/G sepharose beads (a 50:50 mix) from Thermo scientific (Rockford, Ill.) and 2 μg of normal IgG. After microcentrifugation, 20 μL of protein A/G sepharose conjugated with 5 μg of antibody was used to precipitate HDAC2 (Santa Cruz Biotechnology, Santa Cruz, Calif.) overnight at 4° C. with rotation. The immune complexes were pelleted with gentle centrifugation, washed twice with 1 mL of immunoprecipitation buffer, and divided equally for the final wash for the activity assay and immunoblotting. For the HDAC assay, immunoprecipitates were resuspended in the activity assay buffer (50 mM TrisHCl, pH 8.0; 10% glycerol; 1 mM dithiothreitol; 0.1 mM EDTA, complete protease inhibitor cocktail). For HDAC2-specific western blotting, immune complexes were washed three times with the immunoprecipitation buffer and finally resuspended in Laemmli buffer for the SDS-PAGE.

IL-8 gene = details: sulforaphane treatment with DEX
Procedure: as §1
Total RNA was extracted from the cells by lysis and specific binding to a silica membrance (Qiagen RNeasy kit, Qiagen, Valencia, Calif.), and qRT-PCR was performed by using primers and probe sets for human IL-8, NQO1, GCLM, and iNOS (Assay-on-Demand, Applied Biosystems, Foster City, Calif.). A real-time fluorescent PCR system (ABI 7000 Taqman system, Applied Biosystems) was used to perform these assays. β-actin was used as the normalization control.

[1] = test system: nontypeable Haemophilus influenzae
Procedure: Human alveolar macrophages were purified from individual BAL samples by centrifugation and seeded onto 6-well tissue culture plates. After incubation for 2 h, non-adherent cells were removed and the adherent cells were incubated with R, S-sulforaphane (5 μM; LKT Laboratories, Inc., St. Paul, Minn.) and or DMSO in RPMI 1640 culture medium with 10% FBS and 1% penicillin-streptomycin (Invitrogen, Carlsbad, Calif.). After 16-20 h, adherent cells were scraped, suspended in RPMI 1640 culture media and plated onto 96-well tissue culture plates for bacterial phagocytosis and clearance assays. […] For MARCO antibody-depletion, alveolar macrophages were incubated with human anti-MARCO antibody (1 μg/ml; (Hycult, Uden, The Netherlands) for 4 hours prior to bacterial challenge. […]
After treatment, macrophages (10^5 cells) were incubated with bacteria (PA or NTHI) for 4 h. […] The number of bacterial colonies was counted after 24 h.

For `C[S+]([O-])CCCCN=C=S` (centres unmarked) [sulforaphane], the “bacterial burden in lungs” value (Pseudomonas aeruginosa; 1 week CS) was “significantly reduced bacterial burden”, the “bacterial burden in lungs” value (Pseudomonas aeruginosa; 6 months CS) was “significantly reduced bacterial burden” and the “enzymatic activity of HDAC2” value (HDAC2; COPD alveolar macrophages, P<0.01 versus vehicle) was “approximately 2 fold”. The HDAC2 activity (HDAC2; in the presence of BSO) was “failed to increase HDAC2 activity”, the HDAC2 enzymatic activity (HDAC2; treatment after GSNO exposure of alveolar macrophages) was “significantly increased HDAC2 activity” and the “expression of the IL-8 gene” value (IL-8 gene) was “concomitant reduction”. For the same molecule, the “clearance of nontypeable Haemophilus influenzae (decrease in CFU in culture medium)” value ([1]; COPD alveolar macrophages, compared to vehicle, 4 h with bacteria) was 40-95% and the “bactericidal activity towards nontypeable Haemophilus influenzae” value ([1]; cell-free medium with sulforaphane alone) was “no bactericidal activity”.
